The record followed here is US10131657B2, “Bromodomain inhibitors” (AbbVie Inc., priority 2013, dated 2018).

The test system of the experiment is breast cancer cell line MX-1. Description: MX-1 cell line proliferation assay, Method A. The experiment is classed as cell-based. The following applies: Homo sapiens, MX1; MX-1 cells, 96-well, 72 hours, Cell Titer Glo; read-out: Cellular proliferation: EC50 Method A. As to the method:
The impact of compounds of the Examples on cancer cell proliferation was determined using the breast cancer cell line MX-1 (ATCC) in a 3-day proliferation assay and the data are reported in Table 1.
MX-1 cells were maintained in RPMI 1640 medium (Sigma) supplemented with 10% FBS at 37° C. and an atmosphere of 5% CO2. For compound testing, MX-1 cells were plated in 96-well black bottom plates at a density of 5000 cells/well in 90 μL of culture media and incubated at 370 overnight to allow cell adhesion and spreading. Compound dilution series were prepared in DMSO via a 3-fold serial dilution from 3 mM to 0.1 μM. The DMSO dilution series were then diluted 1:100 in phosphate buffered saline, and 10 μL of the resulted solution were added to the appropriate wells of the MX-1 cell plate. The final compound concentrations in the wells were 3, 1, 0.3, 0.1, 0.03, 0.01, 0.003, 0.001, 0.0003 and 0.0001 μM.
Luminescence readings from the Cell Titer Glo assay were normalized to the DMSO treated cells and analyzed using the GraphPad Prism software with sigmoidal curve fitting to obtain ECs50s. The minimum significant ratio (MSR) was determined to evaluate assay reproducibility (Eastwood et al., (2006) J Biomol Screen, 11: 253-261).

pEC50: −log10 of the molar value.

With `Cn1cc(-c2cc(S(C)(=O)=O)ccc2Oc2cccc(NCC3CCCO3)c2)c2cc[nH]c2c1=O` (stereo not shown) [Example 65, 6-methyl-4-[5-(methylsulfonyl)-2-{3-[(tetrahydrofuran-2-ylmethyl)amino]phenoxy}phenyl]-1,6-dihydro-7H-pyrrolo[2,3-c]pyridin-7-one], the pEC50 was 7.40.

Regarding `COc1cccc(CNc2cccc(Oc3ccc(S(C)(=O)=O)cc3-c3cn(C)c(=O)c4[nH]ccc34)c2)c1` [Example 66, 4-[2-{3-[(3-methoxybenzyl)amino]phenoxy}-5-(methylsulfonyl)phenyl]-6-methyl-1,6-dihydro-7H-pyrrolo[2,3-c]pyridin-7-one], the pEC50 was 7.26. Turning to `Cn1cc(-c2cc(S(C)(=O)=O)ccc2Oc2cccc(NCc3ccccc3F)c2)c2cc[nH]c2c1=O` [Example 67, 4-[2-{3-[(2-fluorobenzyl)amino]phenoxy}-5-(methylsulfonyl)phenyl]-6-methyl-1,6-dihydro-7H-pyrrolo[2,3-c]pyridin-7-one], the pEC50 was 7.30.

With `Cn1cc(-c2cc(S(C)(=O)=O)ccc2Oc2cccc(NCc3cccc(OC(F)(F)F)c3)c2)c2cc[nH]c2c1=O` [Example 69, 6-methyl-4-[5-(methylsulfonyl)-2-(3-{[3-(trifluoromethoxy)benzyl]amino}phenoxy)phenyl]-1,6-dihydro-7H-pyrrolo[2,3-c]pyridin-7-one], the pEC50 is 7.03.

For `Cn1cc(-c2cc(S(C)(=O)=O)ccc2Oc2cccc(NCc3cc(F)cc(F)c3)c2)c2cc[nH]c2c1=O` [Example 73, 4-[2-{3-[(3,5-difluorobenzyl)amino]phenoxy}-5-(methylsulfonyl)phenyl]-6-methyl-1,6-dihydro-7H-pyrrolo[2,3-c]pyridin-7-one], the pEC50 is 7.20. `CN(C)CCCOc1ccc(CNc2cccc(Oc3ccc(S(C)(=O)=O)cc3-c3cn(C)c(=O)c4[nH]ccc34)c2)cc1` [Example 74, 4-{2-[3-({4-[3-(dimethylamino)propoxy]benzyl}amino)phenoxy]-5-(methylsulfonyl)phenyl}-6-methyl-1,6-dihydro-7H-pyrrolo[2,3-c]pyridin-7-one]: the pEC50 is 7.35. The figure for `CN(C)c1cccc(CNc2cccc(Oc3ccc(S(C)(=O)=O)cc3-c3cn(C)c(=O)c4[nH]ccc34)c2)c1` [Example 75, 4-[2-(3-{[3-(dimethylamino)benzyl]amino}phenoxy)-5-(methylsulfonyl)phenyl]-6-methyl-1,6-dihydro-7H-pyrrolo[2,3-c]pyridin-7-one] is 6.95. `Cn1cc(-c2cc(S(C)(=O)=O)ccc2Oc2cccc(NCc3ccc4c(c3)OCCO4)c2)c2cc[nH]c2c1=O` [Example 76, 4-[2-{3-[(2,3-dihydro-1,4-benzodioxin-6-ylmethyl)amino]phenoxy}-5-(methylsulfonyl)phenyl]-6-methyl-1,6-dihydro-7H-pyrrolo[2,3-c]pyridin-7-one]: the pEC50 was 7.30.

For the compound `Cn1cc(-c2cc(S(C)(=O)=O)ccc2Oc2cccc(NCC3CCOC3)c2)c2cc[nH]c2c1=O` (stereo not shown) [Example 77, 6-methyl-4-[5-(methylsulfonyl)-2-{3-[(tetrahydrofuran-3-ylmethyl)amino]phenoxy}phenyl]-1,6-dihydro-7H-pyrrolo[2,3-c]pyridin-7-one], the pEC50 was 7.16.

For the compound `Cn1cc(-c2cc(S(C)(=O)=O)ccc2Oc2cccc(NCC3CC3)c2)c2cc[nH]c2c1=O` [Example 80, 4-[2-{3-[(cyclopropylmethyl)amino]phenoxy}-5-(methylsulfonyl)phenyl]-6-methyl-1,6-dihydro-7H-pyrrolo[2,3-c]pyridin-7-one], the pEC50 was 6.89.

For `CCS(=O)(=O)c1ccc(Oc2ccc(Cl)cc2C#CCN2CCOCC2)c(-c2cn(C)c(=O)c3[nH]ccc23)c1` [Example 82, 4-[2-{4-chloro-2-[3-(morpholin-4-yl)prop-1-yn-1-yl]phenoxy}-5-(ethylsulfonyl)phenyl]-6-methyl-1,6-dihydro-7H-pyrrolo[2,3-c]pyridin-7-one], the pEC50 was 6.66. The figure for `CCS(=O)(=O)c1ccc(Oc2ccc(Cl)cc2CCCN2CCOCC2)c(-c2cn(C)c(=O)c3[nH]ccc23)c1` [Example 83, 4-[2-{4-chloro-2-[3-(morpholin-4-yl)propyl]phenoxy}-5-(ethylsulfonyl)phenyl]-6-methyl-1,6-dihydro-7H-pyrrolo[2,3-c]pyridin-7-one] is 7.05. Take `Cn1cc(-c2cc(S(C)(=O)=O)ccc2NC2CCN(S(=O)(=O)c3ccccc3)CC2)c2cc[nH]c2c1=O` [Example 84, 6-methyl-4-[5-(methylsulfonyl)-2-{[1-(phenylsulfonyl)piperidin-4-yl]amino}phenyl]-1,6-dihydro-7H-pyrrolo[2,3-c]pyridin-7-one]: the pEC50 was 7.06. On to `CN(C)CC(=O)N1CCC(Nc2ccc(S(C)(=O)=O)cc2-c2cn(C)c(=O)c3[nH]ccc23)CC1` [Example 85, 4-[2-({1-[(dimethylamino)acetyl]piperidin-4-yl}amino)-5-(methylsulfonyl)phenyl]-6-methyl-1,6-dihydro-7H-pyrrolo[2,3-c]pyridin-7-one], for which the pEC50 is below 6.00. `CC(=O)Nc1ccc(CN2CCC(Nc3ccc(S(C)(=O)=O)cc3-c3cn(C)c(=O)c4[nH]ccc34)CC2)cc1` [Example 87, N-{4-[(4-{[2-(6-methyl-7-oxo-6,7-dihydro-1H-pyrrolo[2,3-c]pyridin-4-yl)-4-(methylsulfonyl)phenyl]amino}piperidin-1-yl)methyl]phenyl}acetamide]: the pEC50 is 6.49. As to `CN1CCN(CC(=O)N2CCC(Nc3ccc(S(C)(=O)=O)cc3-c3cn(C)c(=O)c4[nH]ccc34)CC2)CC1` [Example 96, 6-methyl-4-[2-({1-[(4-methylpiperazin-1-yl)acetyl]piperidin-4-yl}amino)-5-(methylsulfonyl)phenyl]-1,6-dihydro-7H-pyrrolo[2,3-c]pyridin-7-one], the pEC50 is below 6.00. As for `Cn1cc(-c2cc(S(C)(=O)=O)ccc2NC2CCN(S(=O)(=O)Cc3ccccc3)CC2)c2cc[nH]c2c1=O` [Example 101, 4-[2-{[1-(benzylsulfonyl)piperidin-4-yl]amino}-5-(methylsulfonyl)phenyl]-6-methyl-1,6-dihydro-7H-pyrrolo[2,3-c]pyridin-7-one], the pEC50 is 7.14. Turning to `COc1ccc(S(=O)(=O)N2CCC(Nc3ccc(S(C)(=O)=O)cc3-c3cn(C)c(=O)c4[nH]ccc34)CC2)cc1` [Example 104, 4-[2-({1-[(4-methoxyphenyl)sulfonyl]piperidin-4-yl}amino)-5-(methylsulfonyl)phenyl]-6-methyl-1,6-dihydro-7H-pyrrolo[2,3-c]pyridin-7-one], the pEC50 was 6.75. The figure for `Cn1cc(-c2cc(S(C)(=O)=O)ccc2N[C@H]2CC[C@H](NCc3cccs3)CC2)c2cc[nH]c2c1=O` [Example 107, 6-methyl-4-[5-(methylsulfonyl)-2-({trans-4-[(thiophen-2-ylmethyl)amino]cyclohexyl}amino)phenyl]-1,6-dihydro-7H-pyrrolo[2,3-c]pyridin-7-one] is 7.63.

In the case of `CC(=O)Nc1ccc(CN[C@H]2CC[C@H](Nc3ccc(S(C)(=O)=O)cc3-c3cn(C)c(=O)c4[nH]ccc34)CC2)cc1` [Example 108, N-(4-{[(trans-4-{[2-(6-methyl-7-oxo-6,7-dihydro-1H-pyrrolo[2,3-c]pyridin-4-yl)-4-(methylsulfonyl)phenyl]amino}cyclohexyl)amino]methyl}phenyl)acetamide], the pEC50 was 6.52. As to `Cn1cc(-c2cc(S(C)(=O)=O)ccc2N[C@H]2CC[C@H](NCc3ccc(F)cc3F)CC2)c2cc[nH]c2c1=O` [Example 109, 4-[2-({trans-4-[(2,4-difluorobenzyl)amino]cyclohexyl}amino)-5-(methylsulfonyl)phenyl]-6-methyl-1,6-dihydro-7H-pyrrolo[2,3-c]pyridin-7-one], the pEC50 was 7.74.

Turning to `Cn1cc(-c2cc(S(C)(=O)=O)ccc2N[C@H]2CC[C@H](NCc3ccc4ccccc4c3)CC2)c2cc[nH]c2c1=O` [Example 110, 6-methyl-4-[5-(methylsulfonyl)-2-({trans-4-[(naphthalen-2-ylmethyl)amino]cyclohexyl}amino)phenyl]-1,6-dihydro-7H-pyrrolo[2,3-c]pyridin-7-one], the pEC50 is 7.98.

In the case of `COCCN[C@H]1CC[C@H](Nc2ccc(S(C)(=O)=O)cc2-c2cn(C)c(=O)c3[nH]ccc23)CC1` [Example 111, 4-[2-({trans-4-[(2-methoxyethyl)amino]cyclohexyl}amino)-5-(methylsulfonyl)phenyl]-6-methyl-1,6-dihydro-7H-pyrrolo[2,3-c]pyridin-7-one], the pEC50 was 6.81. The figure for `CSCCCN[C@H]1CC[C@H](Nc2ccc(S(C)(=O)=O)cc2-c2cn(C)c(=O)c3[nH]ccc23)CC1` [Example 112, 6-methyl-4-{2-[(trans-4-{[3-(methylsulfanyl)propyl]amino}cyclohexyl)amino]-5-(methylsulfonyl)phenyl}-1,6-dihydro-7H-pyrrolo[2,3-c]pyridin-7-one] is 6.85; for `Cn1cc(-c2cc(S(C)(=O)=O)ccc2N[C@H]2CC[C@H](NCc3ccc(Cl)cc3)CC2)c2cc[nH]c2c1=O` [Example 113, 4-[2-({trans-4-[(4-chlorobenzyl)amino]cyclohexyl}amino)-5-(methylsulfonyl)phenyl]-6-methyl-1,6-dihydro-7H-pyrrolo[2,3-c]pyridin-7-one] it is 7.71.
